Laboratory results as given in PMC10816875, “Synthesis, Characterization, Cytotoxicity, Cellular Imaging, Molecular Docking, and ADMET Studies of Piperazine-Linked 1,8-Naphthalimide-Arylsulfonyl Derivatives” (International Journal of Molecular Sciences, 2024).
Like-named read-outs stand apart in the source and are kept apart here.

What was measured:
Format in all cases: cell-based
[1] = CCK-8 viability of 3T3 fibroblast cells; settings: mouse, read-out: % Cell viability against 3T3 fibroblast cell line
Method: (§1) For the anticancer studies, we established a stable cell culture for mouse breast cancer cell line 4T1 (ATCC: CRL-2539) cultured in the medium composition RPMI-1640 (Gibco; Grand Island, New York, USA), 10% fetal bovine serum (Gibco, Mexico), 4.5 g/L glucose, 1.5 g/L NaHCO3, 1 mM sodium pyruvate (Gibco; Grand Island, New York, NY, USA), and 1% penicillin–streptomycin (10,000 U/mL). We observed typical cell morphology after the IV passage of cells unfrozen from liquid nitrogen. Then, the cells were used for the subsequent anticancer experiment. A non-cancerous fibroblast cell line (3T3/NIH, ATCC: CRL-1658) was employed for the fluorescence imaging assay. The cells were cultured in 90% Dulbecco’s modified Eagle’s medium with 4 mM L-glutamine, 2 mM sodium pyruvate, 1% non-essential amino acid, 1% penicillin/streptomycin/amphotericin, and 10% fetal bovine serum.
(§2) A total of 5.0 × 10^4 of 3T3 cells per well in a 96-well plate were co-cultured with the 1.0 μg/mL of SA samples for 72 h. The viability of the 3T3 cells was assayed by using 10% CCK-8 reagent for 60 min to determine the toxicity of the SA samples. Afterwards, the cells were fixed with glutaraldehyde, followed by staining with 0.1 μg/mL of 4′,6-diamidino-2-phenylindole (DAPI) for the imaging of the nuclei. An inverted fluorescent optical microscope (Nikon, Eclipse Ti-S, Japan) was utilized. The fluorescent light source was Nikon Intensilight C-HGFI, and two fluorescent filter cubes (Ex = 340–380 nm, Em = 435–485 nm, corresponding to DAPI, and Ex = 465–495 nm, Em = 512–558 nm, corresponding to SA samples) were used to observe the distribution of SA samples in the cytoplasm. A scientific-grade CCD (Dhyana, model: 400 BSI, Tucsen, Fuzhou, China) was used to record the images. The magnification of the OM was 200×. The original fluorescent images were recorded in greyscale. ImageJ software (an open-source software, NIH Image, version 1.54f, Bethesda, MD, USA) was employed to merge and convert two fluorescent images into visible colors, e.g., blue for cell nuclei and green for SA1–SA7 samples.

3T3 fibroblast cell line = assay: CCK-8 viability of 3T3 fibroblast cells; settings: 1 μg/mL, 72 h
Method: as §1, §2

[2] = tested on: mouse breast cancer 4T1 cell line; assay: MTT cytotoxicity assay on 4T1 breast cancer cells; settings: 24 h
Method: as §1
A cellular viability assay was employed for the cytotoxicity of SA samples. […] A cell viability reagent (MTT, Sigma-Aldrich, St Louis, MI, USA) containing yellow tetrazolium salt (3-(4,5-dimethylthiazol-2-yl)-2,5-diphenyltetrazolium bromide) can be converted to purple formazan salt to indicate the cell viability. The 4T1 breast cancer cells were cultured at a density of 5.0 × 10^3 cells per well in 96-well plates. The cells were treated with SA samples for 24 h. The control groups were abbreviated as Cont (100% culture medium), representing normal cell culture; PC (20% DMSO and 80% culture medium), representing toxic condition; and NC (0.1% DMSO and 99.9%), representing minimum toxic condition. MTT reagent was added to 96-well plates to measure the cytotoxic effect of the SA compounds on 4T1 cells.

SMILES	viability at 72 h, 1 μg/mL [1] [%]	cytotoxicity against 4T1 breast cancer cells (in words) [2]	also measured
O=C1c2cccc3cccc(c23)C(=O)N1CCN1CCN(S(=O)(=O)c2ccccc2[N+](=O)[O-])CC1 [SA1, 2-(2-(4-((2-Nitrophenyl)sulfonyl)piperazin-1-yl)ethyl)-1H-benzo[de]isoquinoline-1,3 (2H)-dione]	–	–	viability at 72 h, 1 μg/mL ([1]; 3T3/NIH fibroblast cells (non-cancerous)): 82 to 95%
O=C1c2cccc3cccc(c23)C(=O)N1CCN1CCN(S(=O)(=O)c2ccc3ccccc3c2)CC1 [SA2, 2-(2-(4-(Naphthalen-2-ylsulfonyl)piperazin-1-yl)ethyl)-1H-benzo[de]isoquinoline-1,3 (2H)-dione]	82 to 95	–	–
O=C1c2cccc3cccc(c23)C(=O)N1CCN1CCN(S(=O)(=O)c2ccc([N+](=O)[O-])cc2)CC1 [SA3, 2-(2-(4-((4-Nitrophenyl)sulfonyl)piperazin-1-yl)ethyl)-1H-benzo[de]isoquinoline-1,3 (2H)-dione]	82 to 95	low toxicity	% Cell viability against 3T3 fibroblast cell line (3T3 fibroblast cell line): relatively high viability
O=C1c2cccc3cccc(c23)C(=O)N1CCN1CCN(S(=O)(=O)c2ccc(Cl)s2)CC1 [SA4, 2-(2-(4-((5-Chlorothiophen-2-yl)sulfonyl)piperazin-1-yl)ethyl)-1H-benzo[de]isoquinoline-1,3(2H)-dione]	82 to 95	–	–
O=C1c2cccc3cccc(c23)C(=O)N1CCN1CCN(S(=O)(=O)c2cccs2)CC1 [SA5, 2-(2-(4-(Thiophen-2-ylsulfonyl)piperazin-1-yl)ethyl)-1H-benzo[de]isoquinoline-1,3(2H)-dione]	82 to 95	most potent (cytotoxic) compound	viability at 0.7 µM ([2]; Mus musculus, 4T1, 0.7 μM): < 80%
O=C1c2cccc3cccc(c23)C(=O)N1CCN1CCN(S(=O)(=O)c2cccnc2)CC1 [SA6, 2-(2-(4-(Pyridin-3-ylsulfonyl)piperazin-1-yl)ethyl)-1H-benzo[de]isoquinoline-1,3(2H)-dione]	82 to 95	good anticancer activity	–
N#Cc1ccc(S(=O)(=O)N2CCN(CCN3C(=O)c4cccc5cccc(c45)C3=O)CC2)cc1 [SA7, 4-((4-(2-(1,3-Dioxo-1H-benzo[de]isoquinolin-2(3H)-yl)ethyl)piperazin-1-yl)sulfonyl)benzonitrile]	82 to 95	–	–
